Source: patent publication US20100137313A1 (ASTRAZENECA AB, priority 2008, published 2010)

Biological target: S. pneumoniae Topoisomerase IV ATPase (ParE) (Streptococcus pneumoniae serotype 4, UniProt Q59961)
Test: S. pneumoniae Topoisomerase IV ATPase inhibition
Format: biochemical
Conditions: values marked * are an average of two or more data points, read-out: % Inh (13 μM) of S. pneumoniae Topoisomerase IV ATPase
How it was run: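 S. pneumoniae ParE (1.25 nM) ATPase with 160 μM ATP and 5 μg/ml sheared DNA in pH 8.0 Tris, Mg2+, DTT, Brij-35; phosphate detected by malachite green/molybdate at 650 nm. Normalised to 2% DMSO (0%) and 20 μM EDTA (100%); IC50 from 10 concentrations.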

Chain of S. pneumoniae Topoisomerase IV ATPase (ParE) (Q59961 whole entry): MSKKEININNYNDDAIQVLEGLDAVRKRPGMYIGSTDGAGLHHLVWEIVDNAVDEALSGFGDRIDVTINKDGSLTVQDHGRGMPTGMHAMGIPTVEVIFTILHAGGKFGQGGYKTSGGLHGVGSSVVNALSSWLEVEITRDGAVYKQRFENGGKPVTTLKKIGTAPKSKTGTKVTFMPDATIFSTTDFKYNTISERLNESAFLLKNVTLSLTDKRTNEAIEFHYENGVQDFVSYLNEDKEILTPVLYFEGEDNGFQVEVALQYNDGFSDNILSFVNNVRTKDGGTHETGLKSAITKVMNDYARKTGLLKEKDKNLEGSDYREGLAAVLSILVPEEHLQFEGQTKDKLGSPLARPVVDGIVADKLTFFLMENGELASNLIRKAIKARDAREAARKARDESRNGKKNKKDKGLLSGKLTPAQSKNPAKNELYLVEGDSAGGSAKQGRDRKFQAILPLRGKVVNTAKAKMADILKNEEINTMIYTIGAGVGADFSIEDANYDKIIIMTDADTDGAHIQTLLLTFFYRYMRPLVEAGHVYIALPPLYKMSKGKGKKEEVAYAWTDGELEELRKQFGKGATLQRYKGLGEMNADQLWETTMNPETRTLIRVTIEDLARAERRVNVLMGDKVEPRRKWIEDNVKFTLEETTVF

Compound: CON(C)C(=O)c1cccc(-c2cnc(Nc3ccc(F)c(Cl)c3)nc2-n2ccc(C(F)(F)F)n2)c1 [Example 1149, 3-(2-(3-chloro-4-fluorophenylamino)-4-(3-(trifluoromethyl)-1H-pyrazol-1-yl)pyrimidin-5-yl)-N-methoxy-N-methylbenzamide]
- inhibition at 13 µM: 100%

Compound: O=C(O)c1cncc(-c2cnc(Nc3ccc(F)c(Cl)c3)nc2NCCN2CCS(=O)(=O)CC2)c1 [Example 231, 5-{2-(3-Chloro-4-fluoro-phenylamino)-4-[2-(1,1-dioxo-1λ^6-thiomorpholin-4-yl)-ethylamino]-pyrimidin-5-yl}-nicotinic acid]
- inhibition at 13 µM: 81.5%

Compound: CCOC(=O)c1cncc(-c2cnc(Nc3ccc(F)c(Cl)c3)nc2NCCCOC)c1 [Example 143, ethyl 5-(2-(3-chloro-4-fluorophenylamino)-4-(3-methoxypropylamino)pyrimidin-5-yl)nicotinate]
- inhibition at 13 µM: 88.6%

Compound: O=C(O)CCC(=O)Nc1ccc(-c2cnc(Nc3ccc(F)c(Cl)c3)nc2N2CCOCC2)cc1 [Example 478, 4-[(4-{2-[(3-chloro-4-fluorophenyl)amino]-4-(morpholin-4-yl)pyrimidin-5-yl}phenyl)amino]-4-oxobutanoic acid]
- inhibition at 13 µM: 100%

Compound: CCOC(=O)c1cncc(-c2cnc(Nc3ccc(F)c(Cl)c3)nc2N2CCC(OC)CC2)c1 [Example 122, ethyl 5-[2-[3-chloro-4-fluorophenyl)amino]-4-(4-methoxypiperidin-1-yl)pyrimidin-5-yl]pyridine-3-carboxylate]
- inhibition at 13 µM: 57.9%

Compound: CNC(=O)/C=C/c1cccc(-c2cnc(Nc3cc(OC)cc(C(F)(F)F)c3)nc2NCCc2ccncc2)c1 [Example 372]
- inhibition at 13 µM: 80.9%

Compound: COc1ncc(C(=O)O)cc1-c1cnc(Nc2cc(C)cc(C)c2)nc1-n1nc(C(F)(F)F)cc1C [Example 1142, 5-(2-(3,5-dimethylphenylamino)-4-(5-methyl-3-(trifluoromethyl)-1H-pyrazol-1-yl)pyrimidin-5-yl)-6-methoxynicotinic acid]
- inhibition at 13 µM: 100%

Compound: CCOC(=O)/C=C/c1cccc(-c2cnc(Nc3ccc(F)c(Cl)c3)nc2-n2cnc(Cl)c2Cl)c1 [Example 161, ethyl (2E)-3-(3-{2-[(3-chloro-4-fluorophenyl)amino]-4-(4,5-dichloro-1H-imidazol-1-yl)pyrimidin-5-yl}phenyl)prop-2-enoate]
- inhibition at 13 µM: 74.8%

Compound: COc1cc(Nc2ncc(-c3cncc(C(=O)NCC(O)CO)c3)c(-n3nc(C(F)(F)F)cc3C)n2)cc(C(F)(F)F)c1 (stereo not drawn) [Example 936, N-(2,3-dihydroxypropyl)-5-(2-(3-methoxy-5-(trifluoromethyl)phenylamino)-4-(5-methyl-3-(trifluoromethyl)-1H-pyrazol-1-yl)pyrimidin-5-yl)nicotinamide]
- inhibition at 13 µM: 100%

Compound: NC(=O)CCNc1nc(Nc2ccc(F)c(Cl)c2)ncc1-c1cncnc1 [Example 42, 3-[[2-[(3-chloro-4-fluorophenyl)amino]-5-pyrimidin-5-ylpyrimidin-4-yl]amino]propanamide]
- inhibition at 13 µM: 77.5%

Compound: O=C(O)/C=C/c1cccc(-c2cnc(Nc3ccc(F)c(Cl)c3)nc2-n2ccnc2)c1 [Example 359, (E)-3-(3-(2-(3-chloro-4-fluorophenylamino)-4-(1H-imidazol-1-yl)pyrimidin-5-yl)phenyl)acrylic acid]
- inhibition at 13 µM: 86.1%

Compound: CCOC(=O)c1cncc(-c2cnc(Nc3ccc(F)c(Cl)c3)nc2N2CCCCCC2)c1 [Example 127, ethyl 5-[4-(azepan-1-yl)-2-[(3-chloro-4-fluorophenyl)amino]pyrimidin-5-yl]pyridine-3-carboxylate]
- inhibition at 13 µM: 26.5%

Compound: COCC(COC)Oc1ncc(-c2cnc(Nc3ccc(F)c(Cl)c3)nc2-n2nc(C(F)(F)F)cc2C)cc1C(=O)O [Example 870, 5-(2-(3-chloro-4-fluorophenylamino)-4-(5-methyl-3-(trifluoromethyl)-1H-pyrazol-1-yl)pyrimidin-5-yl)-2-(1,3-dimethoxypropan-2-yloxy)nicotinic acid]
- inhibition at 13 µM: 100%

Compound: COCCCNc1nc(Nc2ccc(F)c(Cl)c2)ncc1-c1nc(-c2cnoc2C)cs1 [Example 503, N^2-(3-chloro-4-fluorophenyl)-N^4-(3-methoxypropyl)-5-[4-(5-methylisoxazol-4-yl)-1,3-thiazol-2-yl]pyrimidine-2,4-diamine]
- inhibition at 13 µM: 147%

Compound: COc1cc(Nc2ncc(-c3cncc(C(=O)O)c3)c(-n3ccc(C(F)(F)F)n3)n2)cc(S(C)(=O)=O)c1 [Example 672, 5-(2-{[3-methoxy-5-(methylsulfonyl)phenyl]amino}-4-[3-(trifluoromethyl)-1H-pyrazol-1-yl]pyrimidin-5-yl)pyridine-3-carboxylic acid]
- inhibition at 13 µM: 100%

Compound: COc1cc(Nc2ncc(-c3ccc(C(=O)O)s3)c(-n3nc(C(F)(F)F)cc3C)n2)cc(C(F)(F)F)c1 [Example 883, 5-(2-(3-methoxy-5-(trifluoromethyl)phenylamino)-4-(5-methyl-3-(trifluoromethyl)-1H-pyrazol-1-yl)pyrimidin-5-yl)thiophene-2-carboxylic acid]
- inhibition at 13 µM: 99%

Compound: COc1cc(C#N)cc(Nc2ncc(-c3cnc(OC)c(C(=O)O)c3)c(-n3ccc(C(F)(F)F)n3)n2)c1 [Example 736, 5-{2-[(3-cyano-5-methoxyphenyl)amino]-4-[3-(trifluoromethyl)-1H-pyrazol-1-yl]pyrimidin-5-yl}-2-methoxypyridine-3-carboxylic acid]
- inhibition at 13 µM: 100%

Compound: O=C(O)c1cncc(-c2cnc(Nc3ccc(F)c(Cl)c3)nc2-n2ccnn2)c1 [Example 329, 5-{2-[(3-chloro-4-fluorophenyl)amino]-4-(1H-1,2,3-triazol-1-yl)pyrimidin-5-yl}pyridine-3-carboxylic acid]
- inhibition at 13 µM: 116%

Compound: COCCCNc1nc(Nc2ccc(F)c(Cl)c2)ncc1-c1nc(C(=O)O)cs1 [Example 912, 2-(2-(3-chloro-4-fluorophenylamino)-4-(3-methoxypropylamino)pyrimidin-5-yl)thiazol-4-carboxylic acid]
- inhibition at 13 µM: 99%

Compound: O=C(O)c1cncc(-c2cnc(Nc3ccc4c(c3)OCO4)nc2-n2ccc(C(F)(F)F)n2)c1 [Example 670, 5-{2-(1,3-benzodioxol-5-ylamino)-4-[3-(trifluoromethyl)-1H-pyrazol-1-yl]pyrimidin-5-yl}pyridine-3-carboxylic acid]
- inhibition at 13 µM: 100%

Compound: O=C(O)c1cncc(-c2cnc(Nc3ccc(F)c(Cl)c3)nc2NCCn2cccn2)c1 [Example 260, 5-(2-[(3-chloro-4-fluorophenyl)amino]-4-{[2-(1H-pyrazol-1-yl)ethyl]amino}pyrimidin-5-yl)pyridine-3-carboxylic acid]
- inhibition at 13 µM: 103%

Compound: CN(C)CCCNc1nc(Nc2ccc(F)c(Cl)c2)ncc1-c1cncc(-c2noc(=O)[nH]2)c1 [Example 81, Sodium 3-(5-(2-(3-chloro-4-fluorophenylamino)-4-(3-(dimethylamino)propylamino)pyrimidin-5-yl)pyridin-3-yl)-5-oxo-1,2,4-oxadiazol-4-ide]
- inhibition at 13 µM: 72.6%

Compound: CCN1CC(CNc2nc(Nc3ccc(F)c(Cl)c3)ncc2-c2cnc(OC)nc2)CC1=O (stereo not drawn) [Example 467, 4-((2-(3-chloro-4-fluorophenylamino)-2′-methoxy-5,5′-bipyrimidin-4-ylamino)methyl)-1-ethylpyrrolidin-2-one]
- inhibition at 13 µM: 76%

Compound: CN(C)CCCNc1nc(Nc2ccc(F)c(Cl)c2)ncc1-c1ccc(/C=C/C(=O)O)cc1 [Example 24, (2E)-3-[4-(2-[(3-chloro-4-fluorophenyl)amino]-4-{[3-(dimethylamino)propyl]-amino}pyrimidin-5-yl)phenyl]prop-2-enoic acid]
- inhibition at 13 µM: 98.1%

Compound: CCOC(=O)c1cncc(-c2cnc(Nc3ccc(F)c(Cl)c3)nc2NCCOc2ccccc2)c1 [Example 112]
- inhibition at 13 µM: 0.15%

Compound: CN(C)CCCNc1nc(Nc2ccc(F)c(Cl)c2)ncc1-c1cncc(C#N)c1 [Example 15, 5-{2-(3-chloro-4-fluorophenylamino)-4-[3-(dimethylamino)propylamino]pyrimidin-5-yl}nicotinitrile]
- inhibition at 13 µM: 100%

Compound: CN(C)CCCNc1nc(Nc2ccc(F)c(Cl)c2)ncc1-c1cncc(C(=O)NCc2ccccc2)c1 [Example 371, N-benzyl-5-(2-(3-chloro-4-fluorophenylamino)-4-(3-(dimethylamino)propylamino)pyrimidin-5-yl) nicotinamide]
- inhibition at 13 µM: 82.2%

Compound: CC(=O)NC1CCN(c2nc(Nc3ccc(F)c(Cl)c3)ncc2-c2cncnc2)CC1 [Example 69, N-[1-[2-[(3-chloro-4-fluorophenyl)amino]-5-pyrimidin-5-ylpyrimidin-4-yl]piperidin-4-yl]acetamide]
- inhibition at 13 µM: 77%

Compound: O=C(O)/C=C/c1cccc(-c2cnc(Nc3ccc(F)c(Cl)c3)nc2-n2cc(-c3ccncc3)cn2)c1 [Example 312, (2E)-3-(3-{2-[(3-chloro-4-fluorophenyl)amino]-4-[4-(pyridin-4-yl)-1H-pyrazol-1-yl]pyrimidin-5-yl}phenyl)prop-2-enoic acid]
- inhibition at 13 µM: 101%

Compound: CS(=O)(=O)N1CCN(c2nc(Nc3ccc(F)c(Cl)c3)ncc2-c2cccc(/C=C/C(=O)O)c2)CC1 [Example 302, (E)-3-(3-(2-(3-chloro-4-fluorophenylamino)-4-(4-(methylsulfonyl)piperazin-1-yl)pyrimidin-5-yl)phenyl)acrylic acid]
- inhibition at 13 µM: 83%

Compound: Cc1cc(Nc2ncc(-c3cncc(C(=O)O)c3)c(N3CCOCC3)n2)ccc1F [Example 438]
- inhibition at 13 µM: 81%

Compound: CS(=O)(=O)c1cncc(-c2cnc(Nc3ccc(F)c(Cl)c3)nc2-n2ccc(C(F)(F)F)n2)c1 [Example 990, N-(3-chloro-4-fluorophenyl)-5-(5-(methylsulfonyl)pyridin-3-yl)-4-(3-(trifluoromethyl)-1H-pyrazol-1-yl)pyrimidin-2-amine]
- inhibition at 13 µM: 100%

Compound: O=C(c1cccc(-c2cnc(Nc3ccc(F)c(Cl)c3)nc2-n2ccc(C(F)(F)F)n2)c1)N1CCOCC1 [Example 1151, (3-(2-(3-chloro-4-fluorophenylamino)-4-(3-(trifluoromethyl)-1H-pyrazol-1-yl)pyrimidin-5-yl)phenyl)(morpholino)methanone]
- inhibition at 13 µM: 100%
